Assay results as given in the supplement of paper PMC12420376.

Legend:
Gem031 = ex vivo spheroids of an HRD-negative high-grade serous ovarian cancer; test: cell viability relative to untreated control (ex vivo patient spheroids); higher = less cytotoxic; conditions: 72 h
Protocol: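 Ex vivo 3D spheroid cultures from dissociated tumours of HGSOC patients (DET3CT platform) were treated for 72 h with dose matrices of carboplatin combined with birinapant or vorinostat (nM). Live (TMRM) and dead (POPO-1) cells were imaged and viability was expressed as % of untreated control.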

KURAMOCHI = test: cancer cell viability relative to untreated control; higher = less cytotoxic; conditions: 72 h
Protocol: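 KURAMOCHI or OVCAR8 cells were grown in monoculture or in co-culture with WI38 or patient-derived 030F fibroblasts and treated for 72 h with a dose matrix of carboplatin combined with birinapant or vorinostat (doses in nM). Cancer cell viability was measured by CK8/18 immunofluorescence imaging and expressed as % of untreated control, given as mean with SD.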

O=C(O)C1(C(=O)O)CCC1.[NH2-].[NH2-].[Pt+2] [Carboplatin] + O=C(CCCCCCC(=O)Nc1ccccc1)NO [Vorinostat]
cell viability [%], Gem031
Conditions | partner drug concentration 0 nM | partner drug concentration 1 nM | partner drug concentration 10 nM | partner drug concentration 100 nM | partner drug concentration 1000 nM | partner drug concentration 10000 nM
carboplatin concentration 10 nM | 87.9 | 97.2 | 94 | 90.4 | 85.1 | 89.4
carboplatin concentration 100 nM | 110 | 97.1 | 101 | 95.1 | 92.6 | 98.7
carboplatin concentration 1000 nM | 88 | 96.9 | 104 | 100 | 93.3 | 64.1
carboplatin concentration 10000 nM | 79.2 | 97.2 | 90.6 | 92.2 | 78.4 | 38.7
carboplatin concentration 100000 nM | 26.3 | 31.4 | 30.1 | 22.9 | 16.9 | 14.6

cancer cell viability [%], KURAMOCHI
Conditions | partner drug concentration 0 nM | partner drug concentration 1 nM | partner drug concentration 10 nM | partner drug concentration 100 nM | partner drug concentration 1000 nM | partner drug concentration 10000 nM
carboplatin concentration 10 nM, co-cultured fibroblast: 030F | 95.1 | 107 | 95.5 | 77.5 | 36.9 | 4.67
carboplatin concentration 10 nM, co-cultured fibroblast: WI38 | 93.7 | 107 | 97.6 | 70 | 26.5 | 5.05
carboplatin concentration 10 nM, co-cultured fibroblast: none (monoculture) | 101 | 111 | 101 | 67.6 | 31.1 | -0.479
carboplatin concentration 100 nM, co-cultured fibroblast: 030F | 95.5 | 106 | 102 | 75.9 | 28.8 | 3.53
carboplatin concentration 100 nM, co-cultured fibroblast: WI38 | 91.6 | 101 | 91.2 | 63.2 | 21 | 5.14
carboplatin concentration 100 nM, co-cultured fibroblast: none (monoculture) | 95.7 | 101 | 92.7 | 63.3 | 24.3 | 0.0805
carboplatin concentration 1000 nM, co-cultured fibroblast: 030F | 91.6 | 85.7 | 89.1 | 58.1 | 31.1 | 6.6
carboplatin concentration 1000 nM, co-cultured fibroblast: WI38 | 94.4 | 88.8 | 88.6 | 52 | 18.7 | 5.75
carboplatin concentration 1000 nM, co-cultured fibroblast: none (monoculture) | 102 | 103 | 91.6 | 54.2 | 20.8 | 1.21
carboplatin concentration 1e+05 nM, co-cultured fibroblast: 030F | 44.4 | 47.7 | 47.7 | 38 | 39 | 1.97
carboplatin concentration 1e+05 nM, co-cultured fibroblast: WI38 | 31.1 | 39.3 | 39.4 | 30.1 | 20.6 | 0.366
carboplatin concentration 1e+05 nM, co-cultured fibroblast: none (monoculture) | 26.6 | 37.6 | 37 | 22.8 | 21.3 | -3.77
carboplatin concentration 10000 nM, co-cultured fibroblast: 030F | 51.7 | 72.2 | 71.1 | 55.5 | 45 | 3.59
carboplatin concentration 10000 nM, co-cultured fibroblast: WI38 | 40.7 | 72 | 68 | 46.1 | 28.8 | 4.43
carboplatin concentration 10000 nM, co-cultured fibroblast: none (monoculture) | 23.9 | 80.8 | 62.8 | 49.1 | 27.5 | -0.104
